Biological target: T1, human wild-type (WT)-pendrin (Homo sapiens, UniProt O43511)
T1 construct: expressed in transfected cells
T1 sequence (O43511 1-780): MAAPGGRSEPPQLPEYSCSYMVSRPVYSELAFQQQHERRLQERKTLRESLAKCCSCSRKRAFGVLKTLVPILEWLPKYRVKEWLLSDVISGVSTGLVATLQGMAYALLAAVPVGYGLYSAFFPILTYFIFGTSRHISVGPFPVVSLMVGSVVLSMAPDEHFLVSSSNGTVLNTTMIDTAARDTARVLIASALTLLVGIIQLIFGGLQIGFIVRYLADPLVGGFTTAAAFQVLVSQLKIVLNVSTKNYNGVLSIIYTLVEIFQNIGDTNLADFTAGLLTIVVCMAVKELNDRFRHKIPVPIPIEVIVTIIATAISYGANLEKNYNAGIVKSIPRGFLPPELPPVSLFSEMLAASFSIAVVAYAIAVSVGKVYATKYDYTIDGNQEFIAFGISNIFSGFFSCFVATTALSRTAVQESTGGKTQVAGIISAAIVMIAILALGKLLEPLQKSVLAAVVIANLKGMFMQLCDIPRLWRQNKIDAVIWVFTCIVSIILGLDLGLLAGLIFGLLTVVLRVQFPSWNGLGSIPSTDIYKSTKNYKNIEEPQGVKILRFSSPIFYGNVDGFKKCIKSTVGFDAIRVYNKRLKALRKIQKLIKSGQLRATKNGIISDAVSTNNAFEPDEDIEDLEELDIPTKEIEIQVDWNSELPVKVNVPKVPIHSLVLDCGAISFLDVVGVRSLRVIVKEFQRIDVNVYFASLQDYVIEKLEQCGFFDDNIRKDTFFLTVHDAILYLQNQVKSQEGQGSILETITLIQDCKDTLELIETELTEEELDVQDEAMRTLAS
Test: Pendrin Cl−/I− exchange inhibitory activity, YFP fluorescence in CHO-K1 cells
Assay type: cell-based
Details: for IC50: CHO-K1-YFP cells, read-out: IC50 of pendrin-induced Cl−/I− anion exchange; for IC50 / Inhibition of pendrin-induced Cl−/I− anion exchange: FIG. 1; for inhibition at 1 µM / inhibition at 3 µM / inhibition at 10 µM / inhibition at 30 µM / inhibition at 100 µM: CHO-K1; for inhibition at 1 µM: compound concentration 1 μM; for inhibition at 3 µM: compound concentration 3 μM; for inhibition at 10 µM: compound concentration 10 μM; for inhibition at 30 µM: compound concentration 30 μM; for inhibition at 100 µM: compound concentration 100 μM
Summary of the method: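 CHO-K1 cells stably co-expressing human WT pendrin and YFP-F46L/H148Q/I152L were preincubated with compound (1–100 µM, or 50 µM single dose) for 10 min at 37°C in HEPES buffer, pH 7.4. NaI solution was then injected and YFP quenching was recorded; the initial iodide influx rate came from the initial fluorescence slope.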

Cc1ccc2[nH]c(C(=O)O)c(CC(=O)N3CCN(c4c(C)cccc4Cl)CC3)c2c1 [YPI-A4948, 3-(2-(4-(2-Chloro-6-methylphenyl)piperazin-1-yl)-2-oxoethyl)-5-methyl-1H-indole-2-carboxylic acid]
IC50: 0.57 µM | inhibition at 1 µM: 70.5% | inhibition at 3 µM: 93.6% | inhibition at 10 µM: 100% | inhibition at 30 µM: 100% | inhibition at 100 µM: 100% | Inhibition of pendrin-induced Cl−/I− anion exchange: in a concentration-dependent manner | Efficacy on pendrin relative to YPI-H05 (ratio of IC50 values): approximately 5 times

Cc1ccc(C)c(N2CCN(C(=O)Cc3c(C(=O)O)[nH]c4ccc(Cl)cc34)CC2)c1 [YPI-H05, 5-chloro-3-(2-(4-(2,5-dimethylphenyl)piperazin-1-yl-)-2-oxoethyl)-1H-indole-2-carboxylic acid]
IC50: 2.7 µM | inhibition at 1 µM: < 20% | inhibition at 3 µM: 24.6% | inhibition at 10 µM: 67.9% | inhibition at 30 µM: 95.4% | inhibition at 100 µM: 96.5% | Inhibition of pendrin-induced Cl−/I− anion exchange: in a concentration-dependent manner
